Data reported in paper PMC10807245 (Protein Science : A Publication of the Protein Society, 2024).
Where a SMILES comes first, the peptide text is derived from it. Where no end group is shown, it is not given here. The star is where a group is joined. FITC = O=C1OC2(c3ccc(O)cc3Oc3cc(O)ccc32)c2ccc(NC(=S)*)cc21; Ahx = NCCCCCC(=O)O

What was measured:
IMPα3ΔIBB = IMPα3ΔIBB (Homo sapiens, UniProt O00629); assay: biochemical; type: binding; conditions: for Kd: SEM
Source text: (§1) Recombinant IMPαΔIBB proteins were produced for structural analysis and assays to elucidate the binding profiles with PyV LTAs. For this, plasmid constructs encoding IMPα isoforms with an N‐terminal truncation removing the autoinhibitory IBB domain (ΔIBB) were synthesized (GenScript Biotech, Singapore). Codon optimized genes were designed with an N‐terminal 6xHis tag and TEV protease cleavage site and were cloned into the BamHI site of pET30a (GenScript Biotech, Singapore). […] For protein expression, the plasmids were transformed via heat shock into BL21(DE3)pLysS E. coli cells (Thermofisher Scientific, Monza, Italy) and grown in 1 L baffled flasks at room temperature using auto‐induction methods for 24–48 h (Studier, [2005]). […] Following this, the 6xHis tag was cleaved using TEV protease incubated overnight at 4°C, and then further purified via gel filtration using a Superdex 200 pg 26/600 column (Cytiva, Marlborough, USA) and tris‐buffered saline (50 mM tris, 125 mM sodium chloride, pH 8.0). […] Peak fractions were assessed for purity using SDS‐PAGE, then pooled and concentrated using 10 kDa cutoff centrifugal filters (Merck Millipore, Milan, Italy). All samples were aliquoted and stored at −80°C until further use.
(§2) Peptides corresponding to the cNLS regions of each PyV were synthesized for use in crystallography and binding assays. An automated CEM Liberty Blue solid phase peptide synthesizer generated each peptide with an added N‐terminal fluorescein isothiocyanate (FITC) tag. The reaction was performed using DIC and Oxyma coupling reagent and Fmoc deprotection with 20% (v/v) piperidine/DMF solution, all at 90°C. Following the final coupling, peptides were cleaved from the resin using a solution of TFA/TIPS/H2O (95/2.5/2.5) for 3 h. Purification was performed with HPLC and the peptides lyophilized to powder. Prior to use, peptide stock solutions were resolubilized to 10 mM concentration, aliquoted, and stored at −20°C until use.
FP was used to quantify binding affinities of the HPyV LTA cNLSs for IMPαΔIBB proteins. Two‐fold dilutions of recombinant IMPαΔIBB proteins were titrated into black Fluotrac microplates (Greiner Bio‐One, Kremsmünster, Austria) and FITC‐cNLS peptides were added to each well before making up to a total volume of 200 μL with tris‐buffered saline. The gain adjustment was made using a well with no FITC‐NLS peptide. The CLARIOstar Plus (BMG Labtech, Mornington, Australia) plate reader measured FP values, with each assay repeated in triplicate. Binding curves to calculate K d and B max values were generated with the one site specific binding least square fit function of Prism 9 (GraphPad) software.

IMPα7ΔIBB = IMPα7ΔIBB (Homo sapiens, UniProt O60684); assay: FP assay, FITC-cNLS peptide binding to IMPα7ΔIBB; conditions: FITC-Ahx-cNLS peptide, two-fold dilutions of recombinant IMPα7ΔIBB, tris-buffered saline, 200 μL, one site specific binding fit, mean ± SEM, three independent experiments, read-out: Kd (nM), a7
IMPα7ΔIBB, sequence (O60684 73-536, stated change not applied): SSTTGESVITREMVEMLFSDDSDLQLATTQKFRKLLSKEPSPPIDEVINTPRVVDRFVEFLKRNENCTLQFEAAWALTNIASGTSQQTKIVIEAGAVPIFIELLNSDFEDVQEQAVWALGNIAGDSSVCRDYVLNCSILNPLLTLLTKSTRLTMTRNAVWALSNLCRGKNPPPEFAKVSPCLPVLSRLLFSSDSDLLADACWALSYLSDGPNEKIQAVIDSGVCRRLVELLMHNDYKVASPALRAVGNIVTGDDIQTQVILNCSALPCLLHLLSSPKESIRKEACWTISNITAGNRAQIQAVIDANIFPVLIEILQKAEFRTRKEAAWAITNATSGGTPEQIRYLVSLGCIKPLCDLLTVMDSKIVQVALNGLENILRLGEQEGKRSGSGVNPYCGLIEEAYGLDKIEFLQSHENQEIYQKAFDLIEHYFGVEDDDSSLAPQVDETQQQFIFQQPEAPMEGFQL
Source text: as §1
as §2, with “Prior to use, peptide stock solutions were resolubilized to 10 mM concentration, aliquoted, and stored at −20°C until use.” left out
(§3) FP was used to quantify binding affinities of the HPyV LTA cNLSs for IMPαΔIBB proteins. […] The CLARIOstar Plus (BMG Labtech, Mornington, Australia) plate reader measured FP values, with each assay repeated in triplicate. […]

IMPα5ΔIBB = IMPα5ΔIBB (Homo sapiens, UniProt P52294); assay: FP assay, FITC-cNLS peptide binding to IMPα5ΔIBB; conditions: FITC-Ahx-cNLS peptide, two-fold dilutions of recombinant IMPα5ΔIBB, tris-buffered saline, 200 μL, one site specific binding fit, mean ± SEM, three independent experiments, read-out: Kd (nM), a5
IMPα5ΔIBB, sequence (P52294 73-538, stated change not applied): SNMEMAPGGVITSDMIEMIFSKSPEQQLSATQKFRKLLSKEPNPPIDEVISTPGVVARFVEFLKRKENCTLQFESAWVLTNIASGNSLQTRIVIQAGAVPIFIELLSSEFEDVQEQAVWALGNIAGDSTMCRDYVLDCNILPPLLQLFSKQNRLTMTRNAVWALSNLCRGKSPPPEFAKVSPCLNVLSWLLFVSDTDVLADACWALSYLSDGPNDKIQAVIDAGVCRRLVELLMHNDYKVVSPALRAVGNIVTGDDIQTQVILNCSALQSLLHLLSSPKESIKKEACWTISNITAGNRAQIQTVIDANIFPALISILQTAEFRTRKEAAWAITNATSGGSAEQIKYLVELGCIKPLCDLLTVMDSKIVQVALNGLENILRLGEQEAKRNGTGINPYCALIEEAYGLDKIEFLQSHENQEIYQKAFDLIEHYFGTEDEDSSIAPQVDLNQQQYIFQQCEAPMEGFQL
Source text: as §1
as §2, with “Prior to use, peptide stock solutions were resolubilized to 10 mM concentration, aliquoted, and stored at −20°C until use.” left out
as §3

IMPα1ΔIBB = IMPα1ΔIBB (Homo sapiens, UniProt P52292); assay: Fluorescence polarization (FP) assay, FITC-cNLS peptide binding to IMPα1ΔIBB; conditions: FITC-Ahx-cNLS peptide, two-fold dilutions of recombinant IMPα1ΔIBB, tris-buffered saline, 200 μL, one site specific binding fit, mean ± SEM, three independent experiments, read-out: Kd (nM), a1
Source text: as §1
as §2, with “Prior to use, peptide stock solutions were resolubilized to 10 mM concentration, aliquoted, and stored at −20°C until use.” left out
as §3

IMPα2ΔIBB [1] = target: T1, IMPα2ΔIBB (Mus musculus, UniProt P52293); assay: biochemical; type: binding; conditions: for Kd: SEM; for binding to IMPα2ΔIBB: FITC-labeled MCPyV LTA NLS peptides, EMSAs and FP assays, in words
IMPα2ΔIBB [2] = target: T1, IMPα2ΔIBB; assay: X-ray crystallography of cNLS peptides complexed with IMPα2ΔIBB; type: binding; conditions: FITC-cNLS peptide soaked or co-crystallized, in words
Source text: Recombinant IMPαΔIBB proteins were produced for structural analysis and assays to elucidate the binding profiles with PyV LTAs. For this, plasmid constructs encoding IMPα isoforms with an N‐terminal truncation removing the autoinhibitory IBB domain (ΔIBB) were synthesized (GenScript Biotech, Singapore). Codon optimized genes were designed with an N‐terminal 6xHis tag and TEV protease cleavage site and were cloned into the BamHI site of pET30a (GenScript Biotech, Singapore). […] For protein expression, the plasmids were transformed via heat shock into BL21(DE3)pLysS E. coli cells (Thermofisher Scientific, Monza, Italy) and grown in 1 L baffled flasks at room temperature using auto‐induction methods for 24–48 h (Studier, [2005]). […] Peak fractions were assessed for purity using SDS‐PAGE, then pooled and concentrated using 10 kDa cutoff centrifugal filters (Merck Millipore, Milan, Italy). […]
X‐ray crystallography was employed to characterize HPyV LTA cNLSs bound to IMPα2ΔIBB. […] Protein interface interactions used in the structure figures were calculated using PDBePISA (Krissinel & Henrick, [2007]), with hydrogens removed in the PDB input models.

IMPαΔIBB isoforms [3] = assay: Electrophoresis mobility shift assays (EMSAs) of FITC-cNLS peptides with IMPαΔIBB isoforms; type: binding; conditions: EMSA, 1.5% agarose gel, TB buffer pH 8.5, FITC-cNLS peptide, in words
IMPαΔIBB isoforms [4] = assay: FP assays, summary over all IMPαΔIBB isoforms; type: binding
Source text: as §1, with “All samples were aliquoted and stored at −80°C until further use.” left out
as §3

IMPα3ΔIBB, sequence (O00629 64-521, stated change not applied): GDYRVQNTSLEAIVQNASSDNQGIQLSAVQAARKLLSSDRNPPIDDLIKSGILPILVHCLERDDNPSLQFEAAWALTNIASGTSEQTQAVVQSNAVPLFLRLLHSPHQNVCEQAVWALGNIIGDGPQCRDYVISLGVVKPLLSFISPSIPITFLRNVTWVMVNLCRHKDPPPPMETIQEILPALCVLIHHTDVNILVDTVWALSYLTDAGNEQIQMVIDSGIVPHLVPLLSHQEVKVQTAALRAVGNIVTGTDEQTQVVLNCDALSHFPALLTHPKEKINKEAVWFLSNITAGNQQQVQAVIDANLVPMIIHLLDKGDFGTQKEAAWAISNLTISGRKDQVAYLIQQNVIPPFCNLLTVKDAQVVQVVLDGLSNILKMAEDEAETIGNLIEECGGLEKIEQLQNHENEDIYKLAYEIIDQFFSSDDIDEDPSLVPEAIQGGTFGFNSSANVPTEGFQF

## CSCC[C@H](NC(=O)CCCCCNC(=S)Nc1ccc2c(c1)C(=O)OC21c2ccc(O)cc2Oc2cc(O)ccc21)C(=O)N[C@@H](Cc1ccccc1)C(=O)N[C@@H](C)C(=O)N[C@@H](CO)C(=O)N[C@@H](CC(=O)O)C(=O)N[C@@H](CC(=O)O)C(=O)N[C@@H](CCC(=O)O)C(=O)N[C@@H](CC(N)=O)C(=O)N[C@H](C(=O)NCC(=O)N[C@@H](CO)C(=O)N[C@@H](CCC(N)=O)C(=O)N[C@@H](Cc1c[nH]cn1)C(=O)N[C@@H](CO)C(=O)N[C@H](C(=O)N1CCC[C@H]1C(=O)N1CCC[C@H]1C(=O)N[C@@H](CCCCN)C(=O)N[C@@H](CCCCN)C(=O)N[C@@H](CCCCN)C(=O)N[C@@H](CCCCN)C(=O)N[C@@H](CCCCN)C(=O)N[C@H](C(=O)O)C(C)C)[C@@H](C)O)[C@@H](C)O [JCPyV] ({FITC-Ahx}-MFASDDENTGSQHSTPPKKKKKV-OH; C-terminus assumed)
IMPα3ΔIBB
  Kd: 119 ± 2.8 nM
IMPα7ΔIBB
  Kd: 103 ± 1.1 nM
IMPα5ΔIBB
  Kd: 271 ± 4.1 nM
IMPα1ΔIBB
  Kd: 76.9 ± 2 nM
IMPα2ΔIBB [1]
  Kd: 89.6 ± 3 nM

## C[C@H](NC(=O)[C@H](Cc1c[nH]cn1)NC(=O)[C@H](CCCCN)NC(=O)[C@H](CCCCN)NC(=O)[C@H](CCCCN)NC(=O)[C@@H]1CCCN1C(=O)[C@@H]1CCCN1C(=O)[C@@H](NC(=O)[C@H](C)NC(=O)[C@H](CCC(N)=O)NC(=O)[C@H](CO)NC(=O)[C@H](CS)NC(=O)[C@H](CO)NC(=O)[C@@H]1CCCN1C(=O)[C@H](CCC(=O)O)NC(=O)[C@H](CCC(=O)O)NC(=O)[C@H](CCC(=O)O)NC(=O)[C@@H]1CCCN1C(=O)[C@H](C)NC(=O)[C@H](CO)NC(=O)[C@H](CCCNC(=N)N)NC(=O)[C@H](CCCCN)NC(=O)CCCCCNC(=S)Nc1ccc2c(c1)C(=O)OC21c2ccc(O)cc2Oc2cc(O)ccc21)[C@@H](C)O)C(=O)O [KIPyV] ({FITC-Ahx}-KRSAPEEEPSCSQATPPKKKHA-OH; C-terminus assumed)
IMPα3ΔIBB
  Kd: 11 ± 2 nM
IMPα7ΔIBB
  Kd: 8 ± 1 nM
IMPα5ΔIBB
  Kd: 10 ± 1 nM
IMPα1ΔIBB
  Kd: 22 ± 1 nM
IMPα2ΔIBB [1]
  Kd: 14 ± 3 nM

## C[C@H](NC(=O)[C@H](CCC(N)=O)NC(=O)[C@H](CO)NC(=O)[C@H](CS)NC(=O)[C@H](CCC(N)=O)NC(=O)[C@@H]1CCCN1C(=O)[C@H](CCC(=O)O)NC(=O)[C@H](CCC(=O)O)NC(=O)[C@H](CC(=O)O)NC(=O)[C@H](CC(=O)O)NC(=O)[C@H](CCC(=O)O)NC(=O)[C@H](CCCNC(=N)N)NC(=O)[C@@H](NC(=O)[C@H](CCCNC(=N)N)NC(=O)[C@H](CCCCN)NC(=O)CCCCCNC(=S)Nc1ccc2c(c1)C(=O)OC21c2ccc(O)cc2Oc2cc(O)ccc21)[C@@H](C)O)C(=O)N[C@H](C(=O)N1CCC[C@H]1C(=O)N1CCC[C@H]1C(=O)N[C@@H](CCCCN)C(=O)N[C@@H](CCCCN)C(=O)N[C@@H](CCCCN)C(=O)N[C@@H](CCCCN)C(=O)N[C@@H](CC(=O)O)C(=O)O)[C@@H](C)O [WUPyV] ({FITC-Ahx}-KRTREDDEEPQCSQATPPKKKKD-OH; C-terminus assumed)
IMPα3ΔIBB
  Kd: 0.3 ± 0.03 nM
IMPα7ΔIBB
  Kd: 0.1 ± 0.1 nM
IMPα5ΔIBB
  Kd: 0.9 ± 0.04 nM
IMPα1ΔIBB
  Kd: 0.2 ± 0.02 nM
IMPα2ΔIBB [1]
  Kd: 36.1 ± 2.2 nM

## {FITC-Ahx}-MFASDDENTGSQHSTPPKKKKKV [JCPyV LTA NLS peptide, FITC-Ahx-labelled synthetic peptide of JCPyV LTA monopartite cNLS, residues 111-133]
IMPα2ΔIBB [2]
  binding mode in crystal structure with IMPα2ΔIBB: bound as a monopartite cNLS at the major site of IMPα2ΔIBB
IMPαΔIBB isoforms [3]
  co-migration with IMPαΔIBB isoforms: co‐migrated with all IMPαΔIBB isoforms

## {FITC-Ahx}-PFSRKRTFGGS [MCPyV NLSm K280T]
IMPα2ΔIBB [1]
  binding to IMPα2ΔIBB: completely abrogated IMPα2ΔIBB binding

## {FITC-Ahx}-PFSRKRTFGGSRSSASSASSASFTSTPPKPKKNRE [MCPyV NLSbip K280T]
IMPα2ΔIBB [1]
  binding to IMPα2ΔIBB: completely abrogated IMPα2ΔIBB binding to MCPyV LTA NLSm but not NLSbip

## {FITC-Ahx}-SSSDEEEPASSASVNPEEGCSQDSKYSATPPKQKKPN [HPyV7 LTA cNLS peptide]
IMPα3ΔIBB; in vitro, FP, in words
  binding to IMPα3ΔIBB: weakly binding IMPα3ΔIBB
IMPαΔIBB isoforms [4]; in words
  IMPα isoform specificity: selectively bound to IMPα3ΔIBB
IMPαΔIBB isoforms [4]; span over IMPα1, 2, 3, 5, 7 ΔIBB
  Kds for IMPαΔIBB isoforms: too weak to allow estimation of a Kd
IMPαΔIBB isoforms [3]
  co-migration with IMPαΔIBB isoforms: a very small fraction of HPyV7 LTA monopartite cNLS co‐migrated with IMPαΔIBB isoforms
